# Results reported in paper PMC8761715 (Clinical Pharmacokinetics, 2021).
# How the values were obtained:
# [1] = cited from earlier work
# [2] = cited from earlier work; remark: listed apart in the source
# [3] = Pharmacokinetics of microdosed edoxaban
# [4] = tested on: P-gp/BCRP; conditions: cited from earlier work
# [5] = tested on: CYP2C19; conditions: cited from earlier work
# [6] = tested on: CYP2C9; conditions: cited from earlier work
# [7] = cited from earlier work; remark: listed apart in the source
# [8] = tested on: CYP3A; conditions: cited from earlier work
# [9] = tested on: CYP2D6; conditions: multiple doses of isavuconazole; cited from earlier work
# [10] = Pharmacokinetics of microdosed rivaroxaban; conditions: rivaroxaban 25 µg microdose with the azole named as label, vs baseline
# [11] = Plasma pharmacokinetics of the azole antifungals; assay type: in vivo, human; conditions: after first 200 mg dose, fasting; LLOQ 0.1 µg/mL
# [12] = tested on: CYP2J2; conditions: cited from earlier work
# [13] = posaconazole as tablets; general statement, ref not given; cited from earlier work
# [14] = rivaroxaban with more than one combined P-gp and CYP3A4 inhibitor; atrial fibrillation patients; 95% CI 1.01–1.85, p = 0.04; cited from earlier work
smiles,measurement,setting,value
"COc1ccc(-n2nc(C(N)=O)c3c2C(=O)N(c2ccc(N4CCCCC4=O)cc2)CC3)cc1 [Apixaban, apixaban]",Contribution of CYP enzymes other than CYP3A to overall elimination of apixaban,[1],6%
"CN1CCc2nc(C(=O)N[C@@H]3C[C@@H](C(=O)N(C)C)CC[C@@H]3NC(=O)C(=O)Nc3ccc(Cl)cn3)sc2C1 [Edoxaban, edoxaban]","Edoxaban individual CL/F, range of previous study",[2]; 18 study participants,490 to 1460 mL/min
same,Edoxaban bioavailability,[2],approximately 62%
same,Edoxaban dose eliminated unchanged in the urine,[2],approximately 24%
same,Edoxaban dose excreted unchanged in the faeces,[2],About 50%
same,Part of edoxaban elimination by CYP-mediated metabolism,[2],< 4%
same,Average CL/F of edoxaban higher than published values,[3]; compared with 18 study participants of ref 24,30%
same,"Edoxaban individual CL/F, observed range","[3]; this study, 50 µg microdose",600 to 2200 mL/min
"OC(Cn1cncn1)(Cn1cncn1)c1ccc(F)cc1F [Fluconazole, fluconazole]",P-gp/BCRP inhibitor classification,[4],"not P-gp/BCRP, inhibitor"
same,CYP2C19 inhibitor classification,[5],strong
same,CYP2C9 inhibitor classification,[6],moderate
same,"Rivaroxaban CL/F reduction with fluconazole, published","[7]; therapeutic dose of rivaroxaban, 4 days pre-exposure",29%
same,CYP3A inhibitor classification,[8],Mainly moderate
"C[C@@H](c1nc(-c2ccc(C#N)cc2)cs1)[C@](O)(Cn1cncn1)c1cc(F)ccc1F [Isavuconazole, isavuconazole]",Increase in dextromethorphan exposure,[9],< 20%
same,P-gp/BCRP inhibitor classification,[4],"P-gp inhibitor, but not BCRP inhibitor"
same,Effect of azole on rivaroxaban pharmacokinetics (in words),[10],did not alter any pharmacokinetic parameters
same,CYP3A inhibitor classification,[8],Weak to moderate
"CCC(C)n1ncn(-c2ccc(N3CCN(c4ccc(OCC5COC(Cn6cncn6)(c6ccc(Cl)cc6Cl)O5)cc4)CC3)cc2)c1=O (stereo not drawn) [Itraconazole, itraconazole]",Azole plasma concentrations (in words),[11],below the LLOQ
same,P-gp/BCRP inhibitor classification,[4],P-gp/BCRP inhibitor
same,CYP3A inhibitor classification,[8],Strong
"CC(=O)N1CCN(c2ccc(OCC3COC(Cn4ccnc4)(c4ccc(Cl)cc4Cl)O3)cc2)CC1 (stereo not drawn) [Ketoconazole, ketoconazole]",CYP2J2 inhibitor classification,[12],potent inhibitor
same,"Edoxaban AUC increase with ketoconazole, published",[2],1.9 fold
same,"Apixaban Cmax increase with ketoconazole, published","[1]; similar perpetrator dose, longer pretreatment",1.6 fold
same,"Rivaroxaban AUC increase with ketoconazole, published",[7],2.6 fold
same,CYP3A inhibitor classification,[8],Strong
"CC[C@@H]([C@H](C)O)n1ncn(-c2ccc(N3CCN(c4ccc(OC[C@@H]5CO[C@@](Cn6cncn6)(c6ccc(F)cc6F)C5)cc4)CC3)cc2)c1=O [Posaconazole, posaconazole]",P-gp/BCRP inhibitor classification,[4],in vitro P-gp/BCRP inhibitor
same,CYP3A inhibitor classification,[8],Strong
same,Time at which maximum plasma concentrations are reached (tmax),[13],4 to 5 h
"O=C(NC[C@H]1CN(c2ccc(N3CCOCC3=O)cc2)C(=O)O1)c1ccc(Cl)s1 [Rivaroxaban, rivaroxaban]",Bleeding risk ratio (RR) compared with warfarin,[14],1.37
same,Rivaroxaban P-gp/BCRP-dependent active renal secretion,[7],approximately 30 % of a dose
same,Rivaroxaban bioavailability,[7],80–100%
same,Rivaroxaban partial clearance by non-enzymatic hydrolysis,[7],approximately 14%
same,Rivaroxaban partial clearance mediated by CYP2J2,[7],approximately 14%
same,Rivaroxaban partial clearance mediated by CYP3A,[7],approximately 18 % of a dose
"C[C@@H](c1ncncc1F)[C@](O)(Cn1cncn1)c1ccc(F)cc1F [Voriconazole, voriconazole]",P-gp/BCRP inhibitor classification,[4],"not P-gp/BCRP, inhibitor"
same,CYP3A inhibitor classification,[8],Strong
